Results taken from patent publication US5053404A, “Novel steroid derivatives, pharmaceutical compositions containing them and process for preparing same” (Richter Gedeon Vegyeszeti Gyar R. T., priority 1989, dated 1991).

Assays:
[1] = Comparative acute toxicity (LD50), mice; conditions: mouse, in vivo, 2-week observation
Experimental: (§1) 1) Comparative study on the acute toxicity
(§2) Animal groups consisting of 10 CFLP mice or RG Hann Wistar rats each of both sexes were used. The doses causing the death of 50% of the animals (LD50 values) within a 2-week observation period following subcutaneous (s.c.) or oral (p.o.) administration were determined.

[2] = Comparative acute toxicity (LD50), rats; conditions: rat, in vivo, 2-week observation
Experimental: as §1, §2

[3] = test system: croton oil-induced contact dermatitis; experiment: Croton oil-induced contact dermatitis model, ear weight; format: in vivo, rat; conditions: for Ear weight / Inhibition (of ear weight increase): topical on ear, 6 hours; for Inhibition (of ear weight increase): vs croton oil control; for Relative activity: relative to budesonide = 100, on 10 μg/ml line
Experimental: (§3) 2) The croton oil-induced contact dermatitis model
(§4) Infantile female rats weighing 45 to 55 g were used. Animals had previously been selected for this test, the ear weight of which increased at least by 100% under effect of a treatment with 2% croton oil.
(§5) The test compounds were dissolved in a 2% croton oil mixture in various concentrations and then applied onto the ears of the animals. The control group was treated only with the croton oil inducing inflammation. Six hours after treatment the ears of the animals were cut off and weighed. For evaluation, the diminution of the ear weight increase was expressed as "percentage of inhibition", in comparison to the control treated with croton oil only. In the 48th hour the thymi of the animals were excised and the harmful systemic side effect of the test compounds was evaluated by comparing their thymus weight to that of the control animals.

[4] = test system: thymus; experiment: Thymus involution (systemic side effect) in croton oil-induced contact dermatitis model; format: in vivo, rat; conditions: 48th hour
Source text: (§6) Two principal (essential) demands are set up against topically used steroid antiinflammatory drugs: a) they should be as active as possible in various animal experiments used for investigating the antiinflammatory action; and b) they should induce the lowest harmful systemic side effect. This latter effect can be well characterized by the thymus weight-decreasing action (involution). The possibly lowest toxicity (i.e. the possibly highest LD50 value) is an essential demand for any active agent (drug) used in therapy.
as §3, §4, §5

[5] = test system: local granuloma sac; experiment: Local granuloma sac model, exudate (antiinflammatory effect); format: in vivo, rat; conditions: for Exudate / Inhibition (decrease in volume of exudate): 10th day; for Inhibition (decrease in volume of exudate): vs control; for Relative activity: relative to budesonide = 100, on 2.00 μg/sac line
Experimental: (§7) 3) The local granuloma sac model
This method was used to investigate the antiexudative action of the topically administered glucocorticoids.
Groups consisting of 10 female RG Hann Wistar rats each weighing 130 to 150 g were used. […] After 5 days the content of the sac was removed by suction and once 3 doses each of the glucocorticoids to be tested or budesonide respectively, in a volume of 0.5 ml suspension in Tween 80 were administered by an injection syringe. On the 10th day following the start of the experiment the animals were sacrificed and the exudate liquid of the sac (expressed as ml) was measured. The percentage of the antiinflammatory effect was calculated based on the decrease in the volume of exudate related to that of the control.

[6] = test system: thymus; experiment: Thymus involution (systemic side effect) in local granuloma sac model; format: in vivo, rat; conditions: 10th day
Source text: as §6, §7
Groups consisting of 10 female RG Hann Wistar rats each weighing 130 to 150 g were used. After shaving the back of the animals 25 ml of air were injected beneath the back skin and 1 ml of 2% croton oil inducing inflammation was introduced to the air sac. After 5 days the content of the sac was removed by suction and once 3 doses each of the glucocorticoids to be tested or budesonide respectively, in a volume of 0.5 ml suspension in Tween 80 were administered by an injection syringe. On the 10th day following the start of the experiment the animals were sacrificed and the exudate liquid of the sac (expressed as ml) was measured. The percentage of the antiinflammatory effect was calculated based on the decrease in the volume of exudate related to that of the control.
Then, the thymi of the animals were excised and the harmful systemic side effect of the test compounds was calculated as a percentage based on the comparison of the thymus weight of animals treated with the test compounds to that of the untreated control group.

[7] = test system: experimental asthma; experiment: Experimental asthma model (ovalbumin); format: in vivo, guinea-pig; conditions: 50 mg/kg i.p. 20 hours before i.v. ovalbumin provocation; for Dyspnoea (percentage occurrence): control 33; for Survival: control 66
Source text: 4) The experimental asthma model
This test was used to investigate the antiasthmatic effect of the test compounds.
It is known that by ovalbumin (OA) treatment an experimental asthma can be induced on guinea-pigs which is accompanied by dyspnoea and causes the death of the animals in severe cases. This test is useful to detect an eventual antiasthmatic effect of the test compounds.
Guinea-pigs of both sexes weighing 300 to 400 g each were used. The experimental animals were sensitized by i.p. ovalbumin (10/ μg of OA+100 mg of aluminum hydroxide/animal) and after 30 days they were provoked by the intravenous (i.v.) administration of 100 mg/kg of OA. Both the test compounds and budesonide used as reference substance were given 50 mg/kg i.p. dose 20 hours before the provocation. The percentage occurrence of dyspnoea and the survival were observed.

CCCC1O[C@@H]2C[C@H]3[C@@H]4CCC5=CC(=O)C=C[C@]5(C)[C@H]4[C@@H](O)C[C@]3(C)[C@]2(C(=O)CO)O1 (stereo partly drawn) [Budesonide, (22RS)-11β,21-dihydroxy-16α,17-butylidenedioxypregna-1,4-dien-3,20-dione, reference compound]
LD50 at 336 h ([1]; po, female): 1360 mg/kg | LD50 at 336 h ([1]; po, male): 1080 mg/kg | LD50 at 336 h ([1]; sc, female): 109 mg/kg | LD50 at 336 h ([1]; sc, male): 131 mg/kg | LD50 at 336 h ([2]; po, female): 2110 mg/kg | LD50 at 336 h ([2]; po, male): 3400 mg/kg | LD50 at 336 h ([2]; sc, female): 71.5 mg/kg | LD50 at 336 h ([2]; sc, male): 59.4 mg/kg | Ear weight ([3]; 1 μg/ml in 2% croton oil): 144.71 ± 2.0 mg | Inhibition (of ear weight increase) ([3]; 1 μg/ml): 19.43% | Ear weight ([3]; 10 μg/ml in 2% croton oil): 127.78 ± 2.0 mg | Inhibition (of ear weight increase) ([3]; 10 μg/ml): 39.53% | Ear weight ([3]; 100 μg/ml in 2% croton oil): 117.07 ± 2.7 mg | Inhibition (of ear weight increase) ([3]; 100 μg/ml): 52.24% | Relative activity [3]: 100 | Thymus involution ([4]; 1 μg/ml topical on ear): 9.2% | Thymus involution ([4]; 10 μg/ml topical on ear): 3.9% | Thymus involution ([4]; 100 μg/ml topical on ear): 26.1% | Exudate ([5]; 0.22 μg/sac): 6.38 ± 0.4 mL | Inhibition (decrease in volume of exudate) ([5]; 0.22 μg/sac): 49.89% | Exudate ([5]; 2.00 μg/sac): 4.00 ± 0.3 mL | Inhibition (decrease in volume of exudate) ([5]; 2.00 μg/sac): 68.58% | Exudate ([5]; 18.00 μg/sac): 1.84 ± 0.5 mL | Inhibition (decrease in volume of exudate) ([5]; 18.00 μg/sac): 85.55% | Relative activity [5]: 100 | Thymus involution ([6]; 0.22 μg/sac): 0% | Thymus involution ([6]; 2.00 μg/sac): 0% | Thymus involution ([6]; 18.00 μg/sac): 24.43% | Dyspnoea (percentage occurrence) [7]: 20% | Survival [7]: 60%

CCCC1O[C@@H]2C=C3[C@@H]4CCC5=CC(=O)C=C[C@]5(C)[C@H]4[C@@H](O)C[C@]3(C)[C@]2(C(=O)CO)O1 (stereo partly drawn) [Ex. No. 2, 11β,16α,17,21-tetrahydroxypregna-1,4,14-trien-3,20-dion-16,17-cyclic butyraldehyde acetal]
LD50 at 336 h ([1]; po, female): > 4000 mg/kg | LD50 at 336 h ([1]; po, male): > 4000 mg/kg | LD50 at 336 h ([1]; sc, female): 823 mg/kg | LD50 at 336 h ([1]; sc, male): 585 mg/kg | LD50 at 336 h ([2]; po, female): > 3000 mg/kg | LD50 at 336 h ([2]; po, male): > 4000 mg/kg | LD50 at 336 h ([2]; sc, female): 843 mg/kg | LD50 at 336 h ([2]; sc, male): 1210 mg/kg | Ear weight ([3]; 1 μg/ml in 2% croton oil): 144.60 ± 2.8 mg | Inhibition (of ear weight increase) ([3]; 1 μg/ml): 19.56% | Ear weight ([3]; 10 μg/ml in 2% croton oil): 131.10 ± 2.7 mg | Inhibition (of ear weight increase) ([3]; 10 μg/ml): 35.59% | Ear weight ([3]; 100 μg/ml in 2% croton oil): 118.20 ± 2.2 mg | Inhibition (of ear weight increase) ([3]; 100 μg/ml): 50.90% | Relative activity [3]: 78 | Thymus involution ([4]; 1 μg/ml topical on ear): 0% | Thymus involution ([4]; 10 μg/ml topical on ear): 0% | Thymus involution ([4]; 100 μg/ml topical on ear): 9.8% | Exudate ([5]; 0.22 μg/sac): 7.47 ± 0.5 mL | Inhibition (decrease in volume of exudate) ([5]; 0.22 μg/sac): 41.32% | Exudate ([5]; 2.00 μg/sac): 5.10 ± 0.4 mL | Inhibition (decrease in volume of exudate) ([5]; 2.00 μg/sac): 59.94% | Exudate ([5]; 18.00 μg/sac): 1.36 ± 0.2 mL | Inhibition (decrease in volume of exudate) ([5]; 18.00 μg/sac): 89.32% | Relative activity [5]: 62 | Thymus involution ([6]; 0.22 μg/sac): 0% | Thymus involution ([6]; 2.00 μg/sac): 0% | Thymus involution ([6]; 18.00 μg/sac): 0% | Dyspnoea (percentage occurrence) [7]: 14% | Survival [7]: 43%

CC(C)C1O[C@@H]2C=C3[C@@H]4CCC5=CC(=O)C=C[C@]5(C)[C@H]4[C@@H](O)C[C@]3(C)[C@]2(C(=O)CO)O1 (stereo partly drawn) [Ex. No. 6, 11β,16α,17,21-tetrahydroxypregna-1,4,14-trien-3,20-dion-16,17-cyclic isobutyraldehyde acetal]
LD50 at 336 h ([1]; po, female): 2790 mg/kg | LD50 at 336 h ([1]; po, male): 2930 mg/kg | LD50 at 336 h ([1]; sc, female): 634 mg/kg | LD50 at 336 h ([1]; sc, male): 333 mg/kg | LD50 at 336 h ([2]; po, female): > 3000 mg/kg | LD50 at 336 h ([2]; po, male): > 4000 mg/kg | LD50 at 336 h ([2]; sc, female): 164 mg/kg | LD50 at 336 h ([2]; sc, male): 162 mg/kg | Ear weight ([3]; 1 μg/ml in 2% croton oil): 144.40 ± 3.5 mg | Inhibition (of ear weight increase) ([3]; 1 μg/ml): 19.80% | Ear weight ([3]; 10 μg/ml in 2% croton oil): 126.90 ± 2.7 mg | Inhibition (of ear weight increase) ([3]; 10 μg/ml): 40.57% | Ear weight ([3]; 100 μg/ml in 2% croton oil): 115.10 ± 2.6 mg | Inhibition (of ear weight increase) ([3]; 100 μg/ml): 54.57% | Relative activity [3]: 118 | Thymus involution ([4]; 1 μg/ml topical on ear): 0% | Thymus involution ([4]; 10 μg/ml topical on ear): 1.7% | Thymus involution ([4]; 100 μg/ml topical on ear): 0% | Exudate ([5]; 0.22 μg/sac): 6.52 ± 0.6 mL | Inhibition (decrease in volume of exudate) ([5]; 0.22 μg/sac): 48.79% | Exudate ([5]; 2.00 μg/sac): 5.08 ± 0.4 mL | Inhibition (decrease in volume of exudate) ([5]; 2.00 μg/sac): 60.10% | Exudate ([5]; 18.00 μg/sac): 1.69 ± 0.3 mL | Inhibition (decrease in volume of exudate) ([5]; 18.00 μg/sac): 86.73% | Relative activity [5]: 71 | Thymus involution ([6]; 0.22 μg/sac): 4.98% | Thymus involution ([6]; 2.00 μg/sac): 4.98% | Thymus involution ([6]; 18.00 μg/sac): 6.22% | Dyspnoea (percentage occurrence) [7]: 0% | Survival [7]: 100%
